Assay results as given in patent US20220387544A1, “NOVEL THERAPEUTIC USE” (Artios Pharma Limited, priority 2019, published 2022).

Tests used:
Assay type in all cases: cell-based
[1] = test system: parental and C20orf196 KO SUM149 tumouroids; experiment: Tumouroid assay, parental vs C20orf196 KO SUM149; settings: in C20orf196 KO cells when compared with olaparib
Protocol: Cells were seeded into a hydrogel containing 10% rat tail collagen (OcellO) in 384-well high content imaging microplates at varying densities to compensate for differential growth characteristics (Table 2).
24 hours after seeding, test compounds and olaparib (Selleckchem) were added in an eight-point dose range with a one in three serial dilution (maximum concentration 12 μM for all compounds, except 30 μM compound A for REV7 KO cell experiments). Dimethyl sulfoxide (DMSO) and 1 μM staurosporine (Med Chem Express) treatments were included as negative and positive controls, respectively. All treatments were carried out in quadruplicate.
After seven or fourteen days of treatment for 20orf196 KO and REV7 KO experiments respectively, cells were fixed with 5× Fix & Stain solution (OcellO) for 16 hours at 4° C. to stain both the nuclei using Hoechst 33258 and the actin cytoskeleton using Rhodamine-Phalloidin. Cells were washed four times with phosphate-buffered saline (PBS), and plates were imaged and analysed using OcellO's three-dimensional image analysis software (Ominer). For each well, two channels of 16-bit image stacks were collected using an automated microscope system: Molecular Devices ImageXpress Micro XLS, equipped with a 4× magnification/0.2NA PlanApo objective. For each image slice (n=47), pixel size was 0.324 μm and step size in z-direction was 50 μm.
Parental or C20orf196 KO SUM149 cells were seeded into a collagen-containing hydrogel in 384-well plates and incubated overnight. The resulting tumouroids were treated with a serial dilution of Polθ inhibitor or olaparib for seven days, fixed, and stained to visualise DNA and F-actin. Plates were imaged, and tumouroid size was measured using OcellO's three-dimensional image analysis software.
(§1) Parental or C20orf196 KO SUM149 cells were seeded into a collagen-containing hydrogel in 384-well plates and incubated overnight. The resulting tumouroids were treated with a serial dilution of Polθ inhibitor or olaparib for seven days, fixed, and stained to visualise DNA and F-actin. Plates were imaged, and the number of nuclei per tumouroid was counted using OcellO's three-dimensional image analysis software.
as §1, with “with” for “with a serial dilution of”, “inhibitor, olaparib” for “inhibitor”, “control compound (at the concentrations indicated)” for “olaparib”, “fraction” for “number”, “without an associated actin cytoskeleton” for “per tumouroid”, “calculated” for “counted”

[2] = test system: parental and REV7 KO 22Rv1 cells; experiment: Colony formation assay, 22Rv1; settings: REV7 KO vs REV7 wild type parental 22Rv1 cells, 2 weeks
Protocol: 1 mL of cells were seeded per well in a 24-well plate in triplicate and incubated overnight at 37° C. Cells were treated with a seven-point dose response curve with a one-in-three serial dilution of compound for the timepoints listed in Table 5. For MDA-MB-436 cells media was replenished every five days.
Cells were fixed with 70% ethanol for 20 minutes at room temperature with shaking. Cells were then stained with 0.04% Crystal Violet (Sigma Aldrich) for 20 minutes at room temperature with shaking. Cells were washed 6 times with water and air-dried overnight.
Plates were imaged using a Gelcount (Oxford Optronix), and colonies were counted using parameters optimized for each cell line. 22Rv1 viability curves were generated from the colony counts alone. MDA-MB-436 and […] viability curves were generated from solubilized colonies. Colonies were solubilized using 10% acetic acid (VWR) for 30 minutes, absorbance at 595 nm was read using the Clariostar plate reader (BMG Labtech), and blank correction was applied. Relative Survival was calculated by normalization of compound treated wells to DMSO treated wells.
The effect of a DNA polymerase theta (Polθ) inhibitor (Compound A) or the PARP inhibitor olaparib on the survival of parental (REV7 wild type) or REV7 deleted (REV7 KO) 22Rv1 cells was investigated in colony formation assays (CFA—see protocol above). […]

[3] = test system: Shieldin-defective, PARPi-resistant SUM149 cells; experiment: Re-sensitisation to olaparib
Protocol: For measurement of re-sensitisation to Olaparib, exponentially growing cells were exposed to Compound A for 48 hours. After, cells were seeded in 96-well plates at a concentration of 1000-2000 cells per well. 24 hours post-seeding, Olaparib treatment was initiated and cells were continuously exposed to the drug with media and drug replenished every 72 hours. After 10 days, cell viability was estimated using Cell-Titre Glo (Promega). SFs were calculated and drug sensitivity curves plotted as previously described (Farmer et al Nature (2005) 434, 917-921).
Briefly, parental SUM149 cells or derivatives with either BRCA1 restored or with genetic deletion of either C20orf196 or 53BP1 were treated with Compound A in a tissue culture flask for 48 hours. The cells were then washed before seeding at low density in 96 well plates. 24 hours post seeding, cells were incubated with either olaparib or DMSO for a further 10 days. The relative survival normalised to untreated cells was measured using Cell-Titre Glo.

Cc1cccc(N(C)C(=O)[C@@H]2[C@H](O)CCN2c2nc(C)cc(C(F)(F)F)c2C#N)c1 [Compound A, (2S,3R)-1-(3-cyano-6-methyl-4-(trifluoromethyl)pyridin-2-yl)-3-hydroxy-N-methyl-N-(m-tolyl)pyrrolidine-2-carboxamide]
cell death [1]: significantly more cell death
reduction in the number of nuclei per tumoroid [1]: greater reduction in the number of nuclei per tumoroid
reduction in tumoroid size [1]: greater reduction in tumoroid size
sensitivity by relative survival (colonies) [2]: significantly more sensitive
sensitivity to olaparib after pre-treatment ([3]; Compound A 10 μM 48 hours then olaparib 1 μM 10 days, SUM149 C20orf196 and SUM149 53BP1 cells): induced sensitivity
effect on survival of 48 hours treatment alone ([3]; Compound A 10 μM for 48 hours then DMSO, SUM149 cells and derivatives): no effect on survival
